The values that follow come from patent US9247741B2, “Use of macrocyclic picolinamides as fungicides” (DOW AGROSCIENCES LLC, priority 2013, dated 2016).

For experiment [1], the system named is Puccinia triticina. Nature of the experiment: Wheat brown rust (PUCCRT) disease control on wheat seedlings. The format is in vivo. Particulars: for pest or weed control at 121.5 g/ha: 121.5 g/H (low volume track spray); for pest or weed control at 100 ppm: 100 ppm (high volume). How it is done: Technical grades of materials were dissolved in acetone, which were then mixed with nine volumes of water containing 110 ppm Triton X-100. The fungicide solutions were applied onto wheat seedlings using an automated booth sprayer to run-off. All sprayed plants were allowed to air dry prior to further handling. All fungicides were evaluated using the aforementioned method for their activity vs. all target diseases. Wheat leaf blotch and brown rust activity were also evaluated using track spray applications, in which case the fungicides were formulated as EC formulations, containing 0.1% Trycol 5941 in the spray solutions. Wheat plants (variety Yuma) were grown from seed in a greenhouse in 50% mineral soil/50% soil-less Metro mix until the first leaf was fully emerged, with 7-10 seedlings per pot. These plants were inoculated with an aqueous spore suspension of Septoria tritici either prior to or after fungicide treatments. After inoculation the plants were kept in 100% relative humidity (one day in a dark dew chamber followed by two to three days in a lighted dew chamber at 20° C.) to permit spores to germinate and infect the leaf. The plants were then transferred to a greenhouse set at 20° C. for disease to develop. When disease symptoms were fully expressed on the l^st leaves of untreated plants, infection levels were assessed on a scale of 0 to 100 percent disease severity. Percent disease control was calculated using the ratio of disease severity on treated plants relative to untreated plants. Evaluation of Fungicidal Activity: Wheat Brown Rust (Puccinia triticina; Synonym: Puccinia recondite f sp. tritici; Bayer code PUCCRT) Wheat plants (variety Yuma) were grown from seed in a greenhouse in 50% mineral soil/50% soil-less Metro mix until the first leaf was fully emerged, with 7-10 seedlings per pot. These plants were inoculated with an aqueous spore suspension of Puccinia triticina either prior to or after fungicide treatments. After inoculation the plants were kept in a dark dew room at 22° C. with 100% relative humidity overnight to permit spores to germinate and infect the leaf. The plants were then transferred to a greenhouse set at 24° C. for disease to develop. Fungicide formulation, application and disease assessment followed the procedures as described in the Example A.

The subject of experiment [2] is Mycosphaerella graminicola; Anamorph: Septoria tritici. Nature of the experiment: Leaf blotch of wheat (SEPTTR) disease control on wheat seedlings. Format: in vivo. As to conditions: Zymoseptoria tritici, wheat; for pest or weed control at 121.5 g/ha: 121.5 g/H (low volume track spray); for pest or weed control at 100 ppm: 100 ppm (high volume). How it is done: Evaluation of Fungicidal Activity: Leaf Blotch of Wheat (Mycosphaerella graminicola; Anamorph: Septoria tritici; Bayer Code […]) Technical grades of materials were dissolved in acetone, which were then mixed with nine volumes of water containing 110 ppm Triton X-100. The fungicide solutions were applied onto wheat seedlings using an automated booth sprayer to run-off. All sprayed plants were allowed to air dry prior to further handling. All fungicides were evaluated using the aforementioned method for their activity vs. all target diseases. Wheat leaf blotch and brown rust activity were also evaluated using track spray applications, in which case the fungicides were formulated as EC formulations, containing 0.1% Trycol 5941 in the spray solutions. Wheat plants (variety Yuma) were grown from seed in a greenhouse in 50% mineral soil/50% soil-less Metro mix until the first leaf was fully emerged, with 7-10 seedlings per pot. These plants were inoculated with an aqueous spore suspension of Septoria tritici either prior to or after fungicide treatments. After inoculation the plants were kept in 100% relative humidity (one day in a dark dew chamber followed by two to three days in a lighted dew chamber at 20° C.) to permit spores to germinate and infect the leaf. The plants were then transferred to a greenhouse set at 20° C. for disease to develop. When disease symptoms were fully expressed on the l^st leaves of untreated plants, infection levels were assessed on a scale of 0 to 100 percent disease severity. Percent disease control was calculated using the ratio of disease severity on treated plants relative to untreated plants.

The mark [3] stands for this setting: 24 h, 1 Day Protectant, read-out: PUCCRT 1DP disease control rating.
[4] abbreviates: 72 h, 3 Day Curative, read-out: PUCCRT 3DC disease control rating.
[5] abbreviates: 24 h, 1 Day Protectant, read-out: SEPTTR 1DP disease control rating.
Setting [6] is: 72 h, 3 Day Curative, read-out: SEPTTR 3DC disease control rating.

Read-outs that look alike come from different tables or passages of the source. A value given as a limit tells only on which side of the number the result lay.

On to `COc1ccnc(C(=O)N[C@H]2CCC[C@H](Oc3ccc(C)cc3)[C@@H](Cc3ccc(F)cc3)[C@H](C)OC2=O)c1OCOC(C)=O` [Compound 42], for which the pest or weed control at 121.5 g/ha in experiment [1] (setting [3]) was > 70%; in experiment [1] (setting [4]) it was < 70%; in experiment [2] (setting [5]), > 70%; in experiment [2] (setting [6]) it was > 70%.

`CCCC[C@H]1[C@H](C)OC(=O)[C@@H](NC(=O)c2nccc(OC)c2O)CCC[C@@H]1OCC1CC1` [Compound 32]: the pest or weed control at 100 ppm in experiment [1] (setting [3]), in experiment [1] (setting [4]), in experiment [2] (setting [5]) and in experiment [2] (setting [6]) was > 70% throughout.

As to `COc1ccnc(C(=O)N[C@H]2CCC[C@H](Oc3ccc(C)cc3)[C@@H](Cc3ccccc3)[C@H](C)OC2=O)c1OC(C)=O` [Compound 55], the pest or weed control at 121.5 g/ha was > 70% in experiment [1] (setting [3]), > 70% in experiment [1] (setting [4]), > 70% in experiment [2] (setting [5]) and < 70% in experiment [2] (setting [6]).

Take `CCCC[C@H]1[C@H](C)OC(=O)[C@@H](NC(=O)c2nccc(OC)c2O)CCC[C@@H]1OC(=O)C(C)C` [Compound 64]: the pest or weed control at 100 ppm is > 70% in experiment [1] (setting [3]), < 70% in experiment [1] (setting [4]), > 70% in experiment [2] (setting [5]) and > 70% in experiment [2] (setting [6]).

`CCCC[C@H]1[C@H](C)OC(=O)[C@@H](NC(=O)c2nccc(OC)c2OC(C)=O)CCC[C@@H]1OC(=O)C(C)C` [Compound 44]: the pest or weed control at 121.5 g/ha in experiment [1] (setting [3]), in experiment [1] (setting [4]), in experiment [2] (setting [5]) and in experiment [2] (setting [6]) was > 70% throughout.

For `COc1ccnc(C(=O)N[C@H]2CCC[C@H](Oc3ccc(C)cc3)[C@@H](Cc3ccc(F)cc3)[C@H](C)OC2=O)c1O` [Compound 38], the pest or weed control at 100 ppm in experiment [1] (setting [3]) was > 70%; in experiment [1] (setting [4]) it was < 70%; in experiment [2] (setting [5]) it was > 70%; in experiment [2] (setting [6]), < 70%.

As to `CCCC[C@H]1[C@H](C)OC(=O)[C@@H](NC(=O)c2nccc(OC)c2O)CCC[C@@H]1OCCCC(F)(F)F` [Compound 13], the pest or weed control at 100 ppm was > 70% in experiment [1] (setting [3]), < 70% in experiment [1] (setting [4]), > 70% in experiment [2] (setting [5]) and < 70% in experiment [2] (setting [6]).

For the molecule `COc1ccnc(C(=O)N[C@H]2CCC[C@H](OCC3CC3)[C@@H](Cc3ccccc3)[C@H](C)OC2=O)c1OC(C)=O` [Compound 76], the pest or weed control at 100 ppm in experiment [1] (setting [3]), in experiment [1] (setting [4]), in experiment [2] (setting [5]) and in experiment [2] (setting [6]) was > 70% each time.

`CCCO[C@H]1CCC[C@H](NC(=O)c2nccc(OC)c2OCOC(C)=O)C(=O)O[C@@H](C)[C@@H]1Cc1ccc(F)cc1` [Compound 7]: the pest or weed control at 121.5 g/ha in experiment [1] (setting [3]), in experiment [1] (setting [4]), in experiment [2] (setting [5]) and in experiment [2] (setting [6]) was > 70% throughout.

Turning to `CCCO[C@H]1CCC[C@H](NC(=O)c2nccc(OC)c2O)C(=O)O[C@@H](C)[C@@H]1Cc1ccc(F)cc1` [Compound 37], the pest or weed control at 100 ppm in experiment [1] (setting [3]) is > 70%; in experiment [1] (setting [4]) it was > 70%; in experiment [2] (setting [5]) it was > 70%; in experiment [2] (setting [6]) it was < 70%.

For `COc1ccnc(C(=O)N[C@H]2CCC[C@H](OCc3ccccc3)[C@@H](CCC(C)C)[C@H](C)OC2=O)c1OCOC(C)=O` [Compound 1], the pest or weed control at 121.5 g/ha in experiment [1] (setting [3]), in experiment [1] (setting [4]), in experiment [2] (setting [5]) and in experiment [2] (setting [6]) was > 70% in each case.

In the case of `CCCC[C@H]1[C@H](C)OC(=O)[C@@H](NC(=O)c2nccc(OC)c2OCOC(=O)COCC)CCC[C@@H]1OC(=O)C(C)C` [Compound 71, (2S,3S,4S,8S)-3-butyl-8-(3-((2-ethoxyacetoxyl)methoxy)-4-methoxypicolinamido)-2-methyl-9-oxooxonan-4-yl isobutyrate], the pest or weed control at 121.5 g/ha in experiment [1] (setting [3]), in experiment [1] (setting [4]), in experiment [2] (setting [5]) and in experiment [2] (setting [6]) was > 70% throughout.

For the molecule `COc1ccnc(C(=O)N[C@H]2CCC[C@H](OCC3CC3)[C@@H](Cc3ccccc3)[C@H](C)OC2=O)c1O` [Compound 67], the pest or weed control at 100 ppm in experiment [1] (setting [3]), in experiment [1] (setting [4]), in experiment [2] (setting [5]) and in experiment [2] (setting [6]) was > 70% throughout.

For `COc1ccnc(C(=O)N[C@H]2CCC[C@H](OC(=O)C3CC3)[C@@H](Cc3ccc(F)cc3)[C@H](C)OC2=O)c1O` [Compound 2], the pest or weed control at 100 ppm is > 70% in experiment [1] (setting [3]), > 70% in experiment [1] (setting [4]), > 70% in experiment [2] (setting [5]) and < 70% in experiment [2] (setting [6]).

On to `CCCC[C@H]1[C@H](C)OC(=O)[C@@H](NC(=O)c2nccc(OC)c2OCOC(C)=O)CCC[C@@H]1OCc1ccccc1` [Compound 15], for which the pest or weed control at 121.5 g/ha in experiment [1] (setting [3]), in experiment [1] (setting [4]), in experiment [2] (setting [5]) and in experiment [2] (setting [6]) was > 70% each time.

For `COc1ccnc(C(=O)N[C@H]2CCC[C@H](OC(=O)C3CC3)[C@@H](Cc3ccc(F)cc3)[C@H](C)OC2=O)c1OCOC(C)=O` [Compound 43], the pest or weed control at 121.5 g/ha in experiment [1] (setting [3]), in experiment [1] (setting [4]), in experiment [2] (setting [5]) and in experiment [2] (setting [6]) was > 70% in each case.

`COc1ccnc(C(=O)N[C@H]2CCC[C@H](OCC3CC3)[C@@H](Cc3ccccc3)[C@H](C)OC2=O)c1OCOC(C)=O` [Compound 56]: the pest or weed control at 100 ppm in experiment [1] (setting [3]), in experiment [1] (setting [4]), in experiment [2] (setting [5]) and in experiment [2] (setting [6]) was > 70% each time.

With `COc1ccnc(C(=O)N[C@H]2CCC[C@H](OCC3CC3)[C@@H](Cc3ccc(F)cc3)[C@H](C)OC2=O)c1O` [Compound 26], the pest or weed control at 100 ppm is > 70% in experiment [1] (setting [3]), > 70% in experiment [1] (setting [4]), > 70% in experiment [2] (setting [5]) and < 70% in experiment [2] (setting [6]).

On to `CCCC[C@H]1[C@H](C)OC(=O)[C@@H](NC(=O)c2nccc(OC)c2O)CCC[C@@H]1Oc1ccccc1` [Compound 29], for which the pest or weed control at 100 ppm is > 70% in experiment [1] (setting [3]), > 70% in experiment [1] (setting [4]), > 70% in experiment [2] (setting [5]) and < 70% in experiment [2] (setting [6]).

As for `CCCC[C@H]1[C@H](C)OC(=O)[C@@H](NC(=O)c2nccc(OC)c2OCOC(C)=O)CCC[C@@H]1OCCCC(F)(F)F` [Compound 52], the pest or weed control at 121.5 g/ha in experiment [1] (setting [3]), in experiment [1] (setting [4]), in experiment [2] (setting [5]) and in experiment [2] (setting [6]) was > 70% throughout.

As to `COc1ccnc(C(=O)N[C@H]2CCC[C@H](OCC(C)C)[C@@H](Cc3ccccc3)[C@H](C)OC2=O)c1OCOC(C)=O` [Compound 65], the pest or weed control at 121.5 g/ha in experiment [1] (setting [3]), in experiment [1] (setting [4]), in experiment [2] (setting [5]) and in experiment [2] (setting [6]) was > 70% throughout.
